Laboratory results: ChEMBL document CHEMBL1201862, “PubChem BioAssay data set” (2004)
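Test compounds were applied to cells in 96-well plates for 48 hours at 5 doses. The concentration for 50% growth inhibition is given as GI50.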 Active and inactive are the calls of the source. Cut-off read from the data, not from the text of the source: active = GI50 up to about 1.1 µM and inactive = higher.

Legend:
Experiment in all cases: NCI tumour cell line growth inhibition, 48 h
A549 = test system: A549
ACHN = test system: ACHN
DU-145 = test system: DU-145
K562 = test system: K562
KM-20L2 = test system: KM-20L2
M19-MEL = test system: M19-MEL
MCF7 = test system: MCF7
MDA-MB-435 = test system: MDA-MB-435
MOLT-4 = test system: MOLT-4
NCI-H226 = test system: NCI-H226
NCI-H23 = test system: NCI-H23
OVCAR-5 = test system: OVCAR-5
OVCAR-8 = test system: OVCAR-8
RXF 393 = test system: RXF 393
SF-539 = test system: SF-539
SK-MEL-28 = test system: SK-MEL-28
SK-OV-3 = test system: SK-OV-3
SNB-75 = test system: SNB-75
SNB-78 = test system: SNB-78
U-251 = test system: U-251

Measured: GI50

O=C(NCCCCCCNC(=O)n1cc(F)c(=O)[nH]c1=O)NCCCOCCOCCOCCOCCOCCOCCOCCOCCOCCOCCOCCOCCOCCOCCOCCOCCOCCOCCOCCOCCOCCCNC(=O)C(O)C(O)C(OC1OC(CO)C(O)C(O)C1O)C(O)CO (stereo not given)
inactive: A549 7.33 µM | ACHN 10.3 µM | DU-145 27.7 µM | K562 52.4 µM | KM-20L2 24.1 µM | M19-MEL 64.3 µM | MCF7 6.07 µM | MDA-MB-435 19.3 µM | MOLT-4 37 µM | NCI-H226 > 77.3 µM | NCI-H23 22.5 µM | OVCAR-5 > 54 µM | OVCAR-8 43.4 µM | RXF 393 80.9 µM | SF-539 1.67 µM | SK-MEL-28 29.1 µM | SK-OV-3 > 86.9 µM | SNB-75 16.4 µM | SNB-78 > 100 µM | U-251 > 89.7 µM

Clc1ccc2nc(-c3ccccc3)nc(Cl)c2c1
inactive: A549 50.6 µM | ACHN 24.9 µM | K562 > 100 µM | KM-20L2 > 100 µM | M19-MEL 58.2 µM | MOLT-4 > 100 µM | NCI-H226 34 µM | NCI-H23 69.2 µM | OVCAR-5 > 100 µM | OVCAR-8 37 µM | RXF 393 26.1 µM | SF-539 46.6 µM | SK-MEL-28 80.5 µM | SK-OV-3 12.3 µM | SNB-75 22.1 µM | SNB-78 88.1 µM | U-251 68.1 µM

Cc1cccc(C)c1NC(=O)C(=O)C(C#N)c1ccccc1Cl (stereo not given)
inactive: A549 > 100 µM | ACHN > 100 µM | K562 > 100 µM | KM-20L2 > 100 µM | M19-MEL > 100 µM | MOLT-4 > 100 µM | NCI-H226 > 100 µM | NCI-H23 > 100 µM | OVCAR-5 > 100 µM | OVCAR-8 > 100 µM | RXF 393 > 100 µM | SF-539 > 100 µM | SK-MEL-28 > 100 µM | SK-OV-3 > 100 µM | SNB-75 > 100 µM | SNB-78 > 100 µM | U-251 > 100 µM

O=C1OC(c2ccccc2)=N/C1=C/NC(CO)C(=O)O (stereo not given)
inactive: A549 > 100 µM | ACHN > 100 µM | K562 > 100 µM | KM-20L2 > 100 µM | M19-MEL > 100 µM | NCI-H226 > 100 µM | NCI-H23 > 100 µM | OVCAR-5 > 100 µM | OVCAR-8 > 100 µM | RXF 393 > 100 µM | SF-539 > 100 µM | SK-MEL-28 > 100 µM | SK-OV-3 > 100 µM | SNB-75 > 100 µM | SNB-78 > 100 µM | U-251 > 100 µM

O=c1[nH]c(Br)nc2c(Br)c[nH]c12
inactive: A549 > 100 µM | ACHN > 100 µM | K562 > 100 µM | KM-20L2 > 100 µM | M19-MEL > 100 µM | MOLT-4 > 100 µM | NCI-H226 > 100 µM | NCI-H23 > 100 µM | OVCAR-5 > 100 µM | OVCAR-8 > 100 µM | RXF 393 > 100 µM | SF-539 > 100 µM | SK-MEL-28 > 100 µM | SK-OV-3 > 100 µM | SNB-75 > 100 µM | SNB-78 > 100 µM | U-251 > 100 µM

COc1ccc2[nH]c3c(C)c4c(c(C)c3c2c1)CN(C)CC4
inactive: A549 17.7 µM | ACHN 18.8 µM | K562 4.59 µM | KM-20L2 17 µM | M19-MEL 17.3 µM | MOLT-4 18.5 µM | NCI-H226 15.8 µM | OVCAR-5 23.7 µM | OVCAR-8 11.9 µM | RXF 393 19.3 µM | SF-539 16 µM | SK-MEL-28 14.2 µM | SK-OV-3 16.3 µM | SNB-75 18 µM | SNB-78 25.3 µM | U-251 17.7 µM

CCS(CC)(CC)CC1CCCC2=CCC(P(=O)(c3ccccc3)c3ccccc3)CC21 (stereo not given)
inactive: A549 4.89 µM | ACHN 9.02 µM | K562 4.09 µM | KM-20L2 11.5 µM | M19-MEL 17.9 µM | MOLT-4 4.43 µM | NCI-H226 18.7 µM | NCI-H23 10.5 µM | OVCAR-5 15.6 µM | OVCAR-8 11.4 µM | RXF 393 9.66 µM | SF-539 13.3 µM | SK-MEL-28 14.4 µM | SK-OV-3 12.7 µM | SNB-75 11 µM | SNB-78 15.4 µM | U-251 10.2 µM

N[C@H](COCc1ccccc1)c1ccccc1
inactive: A549 33.5 µM | ACHN 31.5 µM | K562 28 µM | KM-20L2 24.5 µM | M19-MEL 25 µM | MOLT-4 16.7 µM | NCI-H226 27.7 µM | NCI-H23 23 µM | OVCAR-5 24.9 µM | OVCAR-8 35.6 µM | RXF 393 27.3 µM | SF-539 27.9 µM | SK-MEL-28 59.8 µM | SK-OV-3 29.6 µM | SNB-75 20 µM | SNB-78 33.4 µM | U-251 > 56 µM

Nc1nc(OCc2ccccc2)c2nc[nH]c2n1 [6-O-BENZYLGUANINE]
inactive: A549 73.8 µM | ACHN 47.4 µM | K562 86.5 µM | KM-20L2 85.7 µM | M19-MEL 198 µM | MOLT-4 67.6 µM | NCI-H226 47.5 µM | NCI-H23 97.1 µM | OVCAR-5 80 µM | OVCAR-8 112 µM | RXF 393 32.5 µM | SF-539 91.4 µM | SK-MEL-28 140 µM | SK-OV-3 75.7 µM | SNB-75 24.8 µM | SNB-78 79.8 µM | U-251 87.7 µM

CC(=O)O/N=C(/C)c1ccccc1O
inactive: A549 > 100 µM | ACHN > 100 µM | K562 > 100 µM | KM-20L2 > 100 µM | M19-MEL > 100 µM | MOLT-4 > 100 µM | NCI-H226 > 100 µM | NCI-H23 > 100 µM | OVCAR-5 > 100 µM | OVCAR-8 > 100 µM | RXF 393 > 100 µM | SF-539 > 100 µM | SK-MEL-28 > 100 µM | SK-OV-3 > 100 µM | SNB-75 > 100 µM | SNB-78 > 100 µM | U-251 > 100 µM

CC#CC#C/C=C1\C=CC2(OC=CC2O)O1 (stereo not given)
inactive: A549 13.1 µM | ACHN > 23.3 µM | K562 11.6 µM | KM-20L2 3.94 µM | M19-MEL 15.3 µM | MOLT-4 10.5 µM | NCI-H226 > 15.8 µM | NCI-H23 > 20.3 µM | OVCAR-5 4.23 µM | OVCAR-8 14.3 µM | RXF 393 8.55 µM | SF-539 > 14.9 µM | SK-MEL-28 13.3 µM | SK-OV-3 > 23.3 µM | SNB-75 > 19.1 µM | SNB-78 4.93 µM | U-251 > 20.7 µM

Cc1ccc(S(=O)(=O)Nc2ccccc2C(C)(C)C)cc1
inactive: A549 27.7 µM | ACHN 28.1 µM | K562 18 µM | KM-20L2 19 µM | M19-MEL 25.6 µM | MOLT-4 20.9 µM | NCI-H226 22.1 µM | NCI-H23 15.5 µM | OVCAR-5 34.6 µM | OVCAR-8 29.6 µM | RXF 393 6.31 µM | SF-539 17.3 µM | SK-MEL-28 19.7 µM | SK-OV-3 30.5 µM | SNB-75 35.9 µM | SNB-78 31.6 µM | U-251 20.6 µM
